Reference: the kinase profiling compilation of Christmann-Franck et al. (2016)

Legend:
Experiment in all cases: radiometric filter-binding kinase assay, Kinase HotSpot
Conditions in all cases: compound 0.5 µM; ATP 10 µM
[1] = biological target: ZAP70 (human) (UniProt P43403)
[2] = biological target: SYK (human) (UniProt P43405)
[3] = biological target: MET (human) (UniProt P08581)
[4] = biological target: MAPK9 (human) (UniProt P45984)
[5] = biological target: AKT2 (human) (UniProt P31751)
[6] = biological target: EPHA1 (human) (UniProt P21709)
[7] = biological target: CSNK2A2 (human) (UniProt P19784)
CSNK2A2 (human), sequence (P19784 whole entry, looked up): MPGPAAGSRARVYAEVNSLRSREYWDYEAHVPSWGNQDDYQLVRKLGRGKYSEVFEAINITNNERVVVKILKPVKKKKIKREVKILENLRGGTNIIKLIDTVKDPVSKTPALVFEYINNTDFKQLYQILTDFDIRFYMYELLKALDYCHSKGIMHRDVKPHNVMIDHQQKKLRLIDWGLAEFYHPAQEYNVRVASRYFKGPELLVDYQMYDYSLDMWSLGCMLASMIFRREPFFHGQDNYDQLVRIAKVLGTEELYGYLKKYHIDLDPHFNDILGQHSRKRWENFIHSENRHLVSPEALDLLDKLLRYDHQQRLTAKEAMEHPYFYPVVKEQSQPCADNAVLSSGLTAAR

[8] = biological target: MERTK (human) (UniProt Q12866)
[9] = biological target: MAPKAPK2 (human) (UniProt P49137)
MAPKAPK2 (human), sequence (P49137 whole entry, looked up): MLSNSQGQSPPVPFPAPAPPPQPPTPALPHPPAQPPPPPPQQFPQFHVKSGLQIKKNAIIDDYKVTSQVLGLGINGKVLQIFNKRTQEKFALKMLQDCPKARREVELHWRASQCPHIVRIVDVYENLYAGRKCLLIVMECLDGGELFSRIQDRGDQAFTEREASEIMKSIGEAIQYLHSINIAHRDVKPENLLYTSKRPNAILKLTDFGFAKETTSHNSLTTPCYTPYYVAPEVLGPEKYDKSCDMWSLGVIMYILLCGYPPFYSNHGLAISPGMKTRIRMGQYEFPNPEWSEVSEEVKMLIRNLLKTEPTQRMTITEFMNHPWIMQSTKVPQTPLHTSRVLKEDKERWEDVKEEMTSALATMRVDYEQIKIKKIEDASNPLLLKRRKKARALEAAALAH

[10] = biological target: MAP3K10 (human) (UniProt Q02779)
[11] = biological target: GSK3B (human) (UniProt P49841)
GSK3B (human), sequence (P49841 whole entry, looked up): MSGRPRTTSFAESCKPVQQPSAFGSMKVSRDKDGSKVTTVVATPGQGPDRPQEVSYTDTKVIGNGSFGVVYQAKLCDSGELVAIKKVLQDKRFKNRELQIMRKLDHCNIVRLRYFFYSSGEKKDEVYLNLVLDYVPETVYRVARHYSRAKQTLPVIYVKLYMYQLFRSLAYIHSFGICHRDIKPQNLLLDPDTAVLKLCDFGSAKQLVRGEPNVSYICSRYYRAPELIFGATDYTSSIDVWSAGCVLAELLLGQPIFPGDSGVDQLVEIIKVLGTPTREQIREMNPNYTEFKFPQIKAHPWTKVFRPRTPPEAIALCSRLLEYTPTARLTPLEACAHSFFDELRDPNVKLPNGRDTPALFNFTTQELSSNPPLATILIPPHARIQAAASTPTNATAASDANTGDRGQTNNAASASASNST

[12] = biological target: IKBKE (human) (UniProt Q14164)
[13] = biological target: WNK3 (human) (UniProt Q9BYP7)
[14] = biological target: EPHA3 (human) (UniProt P29320)
[15] = biological target: BRSK2 (human) (UniProt Q8IWQ3)
BRSK2 (human), sequence (Q8IWQ3 whole entry, looked up): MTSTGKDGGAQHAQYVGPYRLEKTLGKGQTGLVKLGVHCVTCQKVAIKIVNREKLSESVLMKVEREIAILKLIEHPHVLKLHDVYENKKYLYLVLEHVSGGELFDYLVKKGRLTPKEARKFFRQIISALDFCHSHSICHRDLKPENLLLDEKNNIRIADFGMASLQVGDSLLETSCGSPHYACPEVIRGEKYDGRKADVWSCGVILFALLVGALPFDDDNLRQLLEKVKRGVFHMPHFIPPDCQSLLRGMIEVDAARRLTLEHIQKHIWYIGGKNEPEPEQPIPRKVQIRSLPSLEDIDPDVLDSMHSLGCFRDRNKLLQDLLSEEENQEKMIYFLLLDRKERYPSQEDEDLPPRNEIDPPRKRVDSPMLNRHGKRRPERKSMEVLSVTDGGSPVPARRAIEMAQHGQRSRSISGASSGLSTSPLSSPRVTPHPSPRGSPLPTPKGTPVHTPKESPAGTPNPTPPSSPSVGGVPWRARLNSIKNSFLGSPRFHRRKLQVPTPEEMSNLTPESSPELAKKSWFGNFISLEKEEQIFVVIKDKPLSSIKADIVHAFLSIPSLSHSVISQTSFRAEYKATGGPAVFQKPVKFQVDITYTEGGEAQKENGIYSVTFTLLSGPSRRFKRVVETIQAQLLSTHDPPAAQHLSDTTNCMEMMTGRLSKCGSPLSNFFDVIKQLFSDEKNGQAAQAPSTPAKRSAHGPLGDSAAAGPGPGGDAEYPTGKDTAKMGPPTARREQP

[16] = biological target: CHUK (human) (UniProt O15111)
[17] = biological target: TYK2 JH1 catalytic (human) (UniProt P29597)
[18] = biological target: HIPK2 (human) (UniProt Q9H2X6)
[19] = biological target: PAK2 (human) (UniProt Q13177)
PAK2 (human), sequence (Q13177 whole entry, looked up): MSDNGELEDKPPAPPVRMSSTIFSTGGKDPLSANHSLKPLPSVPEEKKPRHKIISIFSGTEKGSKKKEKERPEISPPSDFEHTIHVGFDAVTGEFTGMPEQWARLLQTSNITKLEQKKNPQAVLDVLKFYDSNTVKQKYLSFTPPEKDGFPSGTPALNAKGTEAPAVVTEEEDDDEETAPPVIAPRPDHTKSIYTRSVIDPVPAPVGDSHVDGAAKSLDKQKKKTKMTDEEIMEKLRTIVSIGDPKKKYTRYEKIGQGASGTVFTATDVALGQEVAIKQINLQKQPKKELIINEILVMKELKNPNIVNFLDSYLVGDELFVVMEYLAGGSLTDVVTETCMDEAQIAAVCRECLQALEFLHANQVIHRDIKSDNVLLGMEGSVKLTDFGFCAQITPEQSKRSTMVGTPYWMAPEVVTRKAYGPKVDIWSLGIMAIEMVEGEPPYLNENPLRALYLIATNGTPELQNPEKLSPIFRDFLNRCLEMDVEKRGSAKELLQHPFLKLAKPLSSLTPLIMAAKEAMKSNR

[20] = biological target: RAF1 (human) (UniProt P04049)
[21] = biological target: PAK1 (human) (UniProt Q13153)
[22] = biological target: NEK11 (human) (UniProt Q8NG66)
[23] = biological target: DDR2 (human) (UniProt Q16832)
[24] = biological target: TGFBR1 (human) (UniProt P36897)
[25] = biological target: TEK (human) (UniProt Q02763)
[26] = biological target: CDK1 CCNA2 (human) (UniProt P06493+P20248)
[27] = biological target: MST1R (human) (UniProt Q04912)
[28] = biological target: NEK4 (human) (UniProt P51957)
[29] = biological target: DYRK3 (human) (UniProt O43781)
DYRK3 (human), sequence (O43781 whole entry, looked up): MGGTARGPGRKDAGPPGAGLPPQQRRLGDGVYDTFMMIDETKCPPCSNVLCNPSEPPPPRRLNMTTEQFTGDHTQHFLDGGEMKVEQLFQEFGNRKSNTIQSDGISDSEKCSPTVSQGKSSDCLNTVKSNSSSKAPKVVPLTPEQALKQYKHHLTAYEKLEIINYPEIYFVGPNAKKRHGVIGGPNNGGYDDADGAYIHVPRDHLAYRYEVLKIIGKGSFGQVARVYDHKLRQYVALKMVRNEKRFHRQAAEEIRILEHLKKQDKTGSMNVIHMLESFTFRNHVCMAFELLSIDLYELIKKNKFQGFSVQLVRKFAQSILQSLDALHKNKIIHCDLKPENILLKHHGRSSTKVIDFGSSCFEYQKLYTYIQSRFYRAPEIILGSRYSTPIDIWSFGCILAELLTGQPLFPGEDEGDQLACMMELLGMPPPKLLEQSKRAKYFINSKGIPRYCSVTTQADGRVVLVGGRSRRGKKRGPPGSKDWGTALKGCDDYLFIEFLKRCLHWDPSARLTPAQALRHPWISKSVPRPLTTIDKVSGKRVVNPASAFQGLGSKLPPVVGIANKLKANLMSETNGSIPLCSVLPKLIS

[30] = biological target: PAK6 (human) (UniProt Q9NQU5)
[31] = biological target: CSNK1G3 (human) (UniProt Q9Y6M4)
[32] = biological target: IKBKB (human) (UniProt O14920)
[33] = biological target: DAPK1 (human) (UniProt P53355)
[34] = biological target: ROCK1 (human) (UniProt Q13464)
[35] = biological target: MARK4 (human) (UniProt Q96L34)
[36] = biological target: KIT (human) (UniProt P10721)
KIT (human), sequence (P10721 whole entry, looked up): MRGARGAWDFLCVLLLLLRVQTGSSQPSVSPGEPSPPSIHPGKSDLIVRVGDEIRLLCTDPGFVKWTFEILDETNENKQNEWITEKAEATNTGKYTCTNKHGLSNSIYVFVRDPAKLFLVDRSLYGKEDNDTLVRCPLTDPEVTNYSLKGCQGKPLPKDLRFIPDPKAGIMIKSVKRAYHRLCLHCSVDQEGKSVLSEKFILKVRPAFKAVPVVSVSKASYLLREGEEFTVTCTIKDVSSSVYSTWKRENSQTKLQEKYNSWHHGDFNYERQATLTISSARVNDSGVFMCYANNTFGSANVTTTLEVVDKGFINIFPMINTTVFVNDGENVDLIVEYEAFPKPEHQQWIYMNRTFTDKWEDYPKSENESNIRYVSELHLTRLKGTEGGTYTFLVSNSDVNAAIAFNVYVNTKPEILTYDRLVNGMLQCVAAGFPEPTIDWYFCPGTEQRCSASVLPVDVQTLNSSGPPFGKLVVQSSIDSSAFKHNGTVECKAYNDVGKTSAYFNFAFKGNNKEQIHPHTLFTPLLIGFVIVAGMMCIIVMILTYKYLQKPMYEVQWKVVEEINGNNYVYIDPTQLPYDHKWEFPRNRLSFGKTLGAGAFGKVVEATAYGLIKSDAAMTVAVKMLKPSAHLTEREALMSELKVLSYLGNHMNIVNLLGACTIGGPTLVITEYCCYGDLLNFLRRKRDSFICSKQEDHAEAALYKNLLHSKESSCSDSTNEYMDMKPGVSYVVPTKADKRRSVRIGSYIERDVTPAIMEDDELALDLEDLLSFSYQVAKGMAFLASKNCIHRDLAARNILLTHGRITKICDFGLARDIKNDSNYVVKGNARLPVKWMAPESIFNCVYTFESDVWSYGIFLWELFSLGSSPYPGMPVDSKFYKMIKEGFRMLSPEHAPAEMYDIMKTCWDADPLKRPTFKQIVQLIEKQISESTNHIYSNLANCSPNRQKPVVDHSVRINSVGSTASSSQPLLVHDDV

[37] = biological target: SGK2 (human) (UniProt Q9HBY8)
SGK2 (human), sequence (Q9HBY8 whole entry, looked up): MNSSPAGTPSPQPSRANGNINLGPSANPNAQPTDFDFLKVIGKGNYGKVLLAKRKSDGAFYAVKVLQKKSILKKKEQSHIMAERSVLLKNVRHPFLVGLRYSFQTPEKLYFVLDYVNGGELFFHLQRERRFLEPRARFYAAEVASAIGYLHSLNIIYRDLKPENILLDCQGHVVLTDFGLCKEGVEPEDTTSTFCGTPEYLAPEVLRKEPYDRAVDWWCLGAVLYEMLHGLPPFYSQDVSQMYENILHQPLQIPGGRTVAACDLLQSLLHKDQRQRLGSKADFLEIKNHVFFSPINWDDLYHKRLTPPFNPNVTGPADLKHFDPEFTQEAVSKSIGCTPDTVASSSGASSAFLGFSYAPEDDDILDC

[38] = biological target: DMPK (human) (UniProt Q09013)
[39] = biological target: NTRK1 (human) (UniProt P04629)
[40] = biological target: EGFR (human) (UniProt P00533)
[41] = biological target: CLK4 (human) (UniProt Q9HAZ1)
[42] = biological target: EPHB4 (human) (UniProt P54760)

MAPK9 (human), sequence (P45984 whole entry, looked up): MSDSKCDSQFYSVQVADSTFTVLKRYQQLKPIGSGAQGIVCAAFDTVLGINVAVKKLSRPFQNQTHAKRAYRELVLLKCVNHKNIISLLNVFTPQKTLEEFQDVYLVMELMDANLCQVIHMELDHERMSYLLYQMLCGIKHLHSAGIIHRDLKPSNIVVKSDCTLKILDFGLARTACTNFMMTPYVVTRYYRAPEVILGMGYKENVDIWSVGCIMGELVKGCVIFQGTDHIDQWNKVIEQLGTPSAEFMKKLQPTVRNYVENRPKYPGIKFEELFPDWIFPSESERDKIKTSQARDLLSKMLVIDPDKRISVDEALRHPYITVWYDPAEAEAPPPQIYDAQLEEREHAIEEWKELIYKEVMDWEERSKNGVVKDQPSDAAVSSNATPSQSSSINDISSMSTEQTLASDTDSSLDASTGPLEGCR

Work on `O=c1cc(N2CCOCC2)oc2c1ccc1ccccc12` yielded a residual activity [1] of 103%, a residual activity [2] of 93% and a residual activity [3] of 161%. It also gave a residual activity [4] of 101%, a residual activity [5] of 98.9% and a residual activity [6] of 94.2%. The residual activity [7] was 78.6%, the residual activity [8] was 96.4% and the residual activity [9] was 98.3%. The residual activity [10] was 102%, the residual activity [11] was 124% and the residual activity [12] was 101%. It also gave a residual activity [13] of 97.5%, a residual activity [14] of 112% and a residual activity [15] of 92.6%. For the same compound, the residual activity [16] was 93.4%, the residual activity [17] was 111% and the residual activity [18] was 105%. The residual activity [19] was 103%, the residual activity [20] was 97.9% and the residual activity [21] was 93.5%. It also gave a residual activity [22] of 99.1%, a residual activity [23] of 105% and a residual activity [24] of 98.5%. The residual activity [25] was 94.4%, the residual activity [26] was 103% and the residual activity [27] was 103%. For the same compound, the residual activity [28] was 97.4%, the residual activity [29] was 96% and the residual activity [30] was 92%. It also gave a residual activity [31] of 98.1%, a residual activity [32] of 105% and a residual activity [33] of 90.9%. It also gave a residual activity [34] of 94.2%, a residual activity [35] of 102% and a residual activity [36] of 105%. The residual activity [37] was 102%, the residual activity [38] was 105% and the residual activity [39] was 96.4%. For the same compound, the residual activity [40] was 96.2%, the residual activity [41] was 101% and the residual activity [42] was 96.3%.
Compound `CO[C@H]1CC2CC[C@@H](C)[C@@](O)(O2)C(=O)C(=O)N2CCCC[C@H]2C(=O)OC([C@H](C)C[C@@H]2CC[C@@H](O)[C@H](OC)C2)CC(=O)[C@H](C)/C=C(\C)[C@@H](O)[C@@H](OC)C(=O)[C@H](C)C[C@H](C)/C=C/C=C/C=C/1C` (some centres undefined) has a residual activity [1] of 99.2%, a residual activity [2] of 97.1% and a residual activity [3] of 98.1%. For the same compound, the residual activity [4] was 98.4%, the residual activity [5] was 96.1% and the residual activity [6] was 99.5%. It also gave a residual activity [7] of 94.2%, a residual activity [8] of 90.9% and a residual activity [9] of 101%. The residual activity [10] was 109%, the residual activity [11] was 109% and the residual activity [12] was 99.4%. It also gave a residual activity [13] of 102%, a residual activity [14] of 109% and a residual activity [15] of 109%. The residual activity [16] was 110%, the residual activity [17] was 107% and the residual activity [18] was 88%. It also gave a residual activity [19] of 101%, a residual activity [20] of 97.2% and a residual activity [21] of 95.6%. The residual activity [22] was 73.6%, the residual activity [23] was 95.6% and the residual activity [24] was 99.5%. It also gave a residual activity [25] of 97.6%, a residual activity [26] of 91.9% and a residual activity [27] of 97%. The residual activity [28] was 97.2%, the residual activity [29] was 105% and the residual activity [30] was 112%. The residual activity [31] was 108%, the residual activity [32] was 109% and the residual activity [33] was 88.5%. For the same compound, the residual activity [34] was 103%, the residual activity [35] was 99.1% and the residual activity [36] was 95.7%. It also gave a residual activity [37] of 101%, a residual activity [38] of 109% and a residual activity [39] of 98.4%. For the same compound, the residual activity [40] was 93.3%, the residual activity [41] was 116% and the residual activity [42] was 89.5%.
